This data set is described as follows: solvent given as SMILES.

Consider `CCn1c2ccccc2c2cc(-c3cc(-c4ccc5c(c4)c4ccccc4n5CC)nc(-c4ccc(OC)cc4)n3)ccc21`, for which, under “in C1CCOC1”, the fluorescence lifetime is 1.63 ns.
In the case of `C=Cc1cc2ccc(N(CC)CC)cc2oc1=O`, the fluorescence lifetime (in CC#N) worked out at 2.84 ns.
Molecule `CC1(C)C(=O)C=Cc2ccc(N)cc21` displayed a fluorescence lifetime (in O) of 3.49 ns.
As to `CCC1(CC)c2cc(B(c3c(C)cc(C)cc3C)c3c(C)cc(C)cc3C)ccc2-c2ccc(N(c3ccccc3)c3ccccc3)cc21`, the fluorescence lifetime by setting is: (in C1CCOC1) 2.5 ns; (in CC#N) 3.5 ns; (in CC(C)=O) 2.9 ns; (in CCCCCC) 1.6 ns; (in CN(C)C=O) 3.5 ns; (in Cc1ccccc1) 1.8 ns. Also, the fluorescence lifetime (in ClC(Cl)Cl) is 2.2 ns.
The molecule `CCN(CC)c1ccc2cc(-c3nc4c5cccc6ccc7cccc(c7c65)c4n3-c3ccc(C(C)(C)C)cc3)c(=O)oc2c1` yielded a fluorescence lifetime (in ClCCl) of 11.4 ns.
Same read-out and setting: with `CCOC(=O)/N=c1/oc2ccc(OC)cc2cc1C#N` the figure was 0.3 ns.
For the molecule `Cn1nc(-c2ccccc2)c2n[nH]nc2/c1=N\c1ccccn1`, the fluorescence lifetime worked out at 0.33 ns (in CC#N), 0.44 ns (in CCO) and 0.34 ns (in Cc1ccccc1).
Where the note is “in C1CCOC1”, `CCn1c2ccccc2c2cc(C#Cc3cc(C#Cc4ccc5c(c4)c4ccccc4n5CC)nc(N4CCCCC4)n3)ccc21` yielded a fluorescence lifetime of 2.9 ns.
Under “in c1cc(-c2cccc(-n3c4ccccc4c4ccccc43)c2)cc(-n2c3ccccc3c3ccccc32)c1”, `CC(C)c1cc(C(C)C)c(B2c3cc(N4c5ccccc5C(C)(C)c5ccccc54)ccc3N(c3ccccc3)c3ccc(N4c5ccccc5C(C)(C)c5ccccc54)cc32)c(C(C)C)c1` came in with a fluorescence lifetime of 17 ns.
In turn, `C[Si](C)(C)c1ccc(-c2ccc(-c3ccc(-c4ccc(-c5ccc([Si](C)(C)C)s5)cc4)c4nsnc34)cc2)s1` displayed a fluorescence lifetime (in C1CCOC1) of 4.4 ns.
Take `[O-][n+]1c(/C=C/c2ccccc2)nc(N2CCOCC2)c2c1CCCC2`: for the setting “in ClCCl”, the fluorescence lifetime turned out to be 9.2 ns.
Consider `C[Si]1(C)c2cc(-c3ccccc3)ccc2C=Cc2ccc(-c3ccccc3)cc21`, for which, for the setting “in ClCCl”, the fluorescence lifetime is 1.6 ns.
For the molecule `CC(C)[Si](C#Cc1ccc(C#C[Si](C(C)C)(C(C)C)C(C)C)c2nc3cc4c(cc3nc12)[C@H]1c2ccccc2[C@@H]4c2ccccc21)(C(C)C)C(C)C`, the fluorescence lifetime was found to be 3.1 ns (in CCCCCC) and 3.4 ns (in ClCCl).
For `O=C1NC(=O)c2ccc(N3CCOCC3)c3cccc1c23`, the fluorescence lifetime reads like this: (in C1CCOC1) 8.38 ns; (in ClC(Cl)Cl) 8.65 ns; (in ClCCl) 8.38 ns.
The molecule `C[Si](C)(C)c1ccc(-c2ccc(-c3ccc(-c4ccc(-c5ccc([Si](C)(C)C)s5)s4)c4nsnc34)s2)s1` had a fluorescence lifetime (in C1CCOC1) of 5.8 ns.
`CCCCn1c(-c2ccc(-c3nnc(-c4ccccc4)o3)cc2)nc2c3ccccc3c3ccccc3c21` came in with a fluorescence lifetime (in ClCCl) of 1.84 ns.
In turn, `CN(C)c1ccc2nc(-c3ccc(C=O)cc3)sc2c1` displayed a fluorescence lifetime (in C1CCCCC1) of 2.5 ns.
For `[BH3-][P+]1(c2ccccc2)c2ccccc2-c2sc3ccccc3c21` (configuration not stated), the fluorescence lifetime (in ClCCl) came out at 3 ns.
For the molecule `CCOC(=O)C(C(=O)OCC)C1=[N+]2C(=C(c3ccc(C)cc3)c3ccc(Cl)n3[B-]2(F)F)C=C1`, the fluorescence lifetime was 2.69 ns (in C1CCCCC1); 2.5 ns (in C1CCOC1); 2.31 ns (in CCOC(C)=O); 2.02 ns (in CO); 3.63 ns (in Cc1ccccc1); 3.67 ns (in ClC(Cl)Cl).
Molecule `O=S(=O)(c1ccc(-c2ccc3c(c2)c2ccccc2n3-c2ccccc2)cc1)c1ccc(-c2ccc3c(c2)c2ccccc2n3-c2ccccc2)cc1` returned a fluorescence lifetime (in Cc1ccccc1) of 1.51 ns.
`COc1ccsc1-c1ccc(-c2ccc(-c3sccc3OC)s2)s1` gave a fluorescence lifetime (in CCC(C)C) of 0.61 ns.
In turn, `O=c1oc2cc(S(=O)(=O)O)c3ccccc3c2nc1-c1ccccc1` showed a fluorescence lifetime (in CC#N) of 4.5 ns.
As for `[NH3+]C(Cc1ccc(O)cc1)C(=O)[O-]` (configuration not stated), for the setting “in O”, the fluorescence lifetime amounted to 3.27 ns.
Regarding `CN(C)C(=O)c1ccc(-c2nc3ccc(N(C)C)cc3s2)cc1`, the fluorescence lifetime (in C1CCCCC1) is 2 ns.
As to `ClC(Cl)=C1c2ccccc2C(C2(Cl)c3ccccc3C(=C(Cl)Cl)c3ccccc32)c2ccccc21` (configuration not stated), the fluorescence lifetime worked out at 10.4 ns (in C1CCCCC1); 16 ns (in CCCCCO); 12.6 ns (in CCCCO); 11.9 ns (in CCCO); 11.7 ns (in CCO); 11.2 ns (in CO).
Under “in Cc1ccccc1”, `CCCCC(CC)CN1C(=O)c2cc(Oc3ccc(OC)cc3)c3c4c(Oc5ccc(C(C)(C)C)cc5)cc5c6c(cc(Oc7ccc(C(C)(C)C)cc7)c(c7c(Oc8ccc(OC)cc8)cc(c2c37)C1=O)c64)C(=O)N(c1c(C(C)C)cccc1C(C)C)C5=O` (configuration not stated) displayed a fluorescence lifetime of 5.32 ns.
For the molecule `c1ccc(-c2cc(-c3ccc(-c4nc(-c5ccccn5)c(-c5ccccn5)[nH]4)cc3)cc(-c3ccccn3)n2)nc1`, the fluorescence lifetime stood at 1.46 ns (in C1CCOC1); 1.44 ns (in CC#N); 1.09 ns (in CC(C)=O); 0.065 ns (in CCCCCC); 2.04 ns (in CCO); 1.18 ns (in CCOC(C)=O). The molecule further registered a fluorescence lifetime (in CN(C)C=O) of 1.91 ns; a fluorescence lifetime (in CO) of 1.41 ns; a fluorescence lifetime (in CS(C)=O) of 2.04 ns; a fluorescence lifetime (in ClC(Cl)Cl) of 1.19 ns; a fluorescence lifetime (in ClCCl) of 3.43 ns; a fluorescence lifetime (in O) of 2.39 ns.
Molecule `c1ccc(N(c2ccccc2)c2ccc(-c3ccc(-c4ccc(-c5cccs5)c5nsnc45)s3)cc2)cc1` gave a fluorescence lifetime (in ClC(Cl)Cl) of 6.62 ns.
In the case of `COc1ccc(-c2ccc3c(c2)[Si](C)(C)c2cc(-c4ccc(OC)cc4)ccc2C=C3)cc1`, the fluorescence lifetime (in ClCCl) was 1.4 ns.
Turning to `CN(C)c1ccc(-c2c(/C=C3/C=Cc4ccccc4N3C)c(=O)c2=O)cc1`, the fluorescence lifetime was 1.54 ns (in C1CCCCC1), 2.48 ns (in Cc1ccccc1) and 0.15 ns (in ClCCl).
As to `O=C1c2ccccc2-c2ccccc21`, the fluorescence lifetime amounted to 0.4 ns (in C1CCCCC1), 17.8 ns (in CC#N), 1.9 ns (in CCO) and 2.8 ns (in c1ccccc1).
In turn, `C(=C\c1ccc(-c2ccncc2)cc1)/c1ccc(-c2ccncc2)cc1` returned a fluorescence lifetime (in ClCCl) of 0.85 ns.
Same read-out and setting: under `CC(C)(C)c1ccc(-c2c3c(c(-c4ccc(C(C)(C)C)cc4)c4cc5ccccc5cc24)Cc2c(c(-c4ccc(C(C)(C)C)cc4)c4cc5ccccc5cc4c2-c2ccc(C(C)(C)C)cc2)C3)cc1` stands 2.35 ns; under `CC1=C(c2ccccc2)C(C)=[N+]2C1=C(c1c(-c3ccccn3)nc3ccccn13)c1c(C)c(-c3ccccc3)c(C)n1[B-]2(F)F`, 3.4 ns.
Under “in CN(C)C=O”, `C[Si](C)(C)O[Si]1(O[Si](C)(C)C)n2c3c4ccccc4c2/N=C2N=C(/N=c4/c5ccccc5/c(n41)=N/C1=NC(=N\3)/c3ccccc31)c1ccccc1\2` gave a fluorescence lifetime of 5.57 ns.
The molecule `CC(C)[Si](C#CC1=CC2=c3cc(C#C[Si](C(C)C)(C(C)C)C(C)C)c4nc(C(F)(F)C(F)(F)C(F)(F)F)nc5c(C#C[Si](C(C)C)(C(C)C)C(C)C)cc(c3c54)C3=CC(C#C[Si](C(C)C)(C(C)C)C(C)C)=C4N=C(C(F)(F)C(F)(F)C(F)(F)F)N=C1C4C32)(C(C)C)C(C)C` (configuration not stated) returned a fluorescence lifetime (in C1CCOC1) of 2 ns.
With `CC(C)c1cc(C(C)C)c(-c2nnc(-c3ccc(-n4c5ccccc5c5ccccc54)cc3)o2)c(C(C)C)c1`, the fluorescence lifetime (in CCO) turned out to be 2.19 ns.
On to `COc1ccc(-c2nc3ccccc3oc2=O)cc1`, for which, for the setting “in c1ccccc1”, the fluorescence lifetime amounted to 2.5 ns.
Turning to `CC1(C)c2ccccc2N(c2ccc(-c3nc(-c4ccccc4)cc(-c4ccccc4)n3)cc2)c2ccccc21`, the fluorescence lifetime reads like this: (in Cc1ccccc1) 6.48 ns; (in ClCCl) 18.2 ns.
As for `CCCCCCCCCCCCOc1cc2cc(N(C)C)ccc2cc1C=O`, the fluorescence lifetime (in ClCCl) was 4.5 ns.
Take `Cc1ccc(C2=C3C=CC(/C=C/c4ccccc4)=[N+]3[B-](F)(F)n3c(Cl)ccc32)cc1`: the fluorescence lifetime runs as follows: (in C1CCCCC1) 3.64 ns; (in C1CCOC1) 3.45 ns; (in C1COCCO1) 3.68 ns; (in CCOC(C)=O) 3.43 ns; (in CO) 3.16 ns; (in Cc1ccccc1) 3.68 ns. This molecule returned a fluorescence lifetime (in ClC(Cl)Cl) of 3.98 ns.
For the molecule `c1ccc(-c2ccnc(-c3ccccc3)n2)cc1`, the fluorescence lifetime (in ClC(Cl)Cl) worked out at 0.6 ns.
Consider `O=P1(c2ccccc2)C(c2ccc(C(F)(F)F)cc2)=Cc2cc3ccccc3cc21` (configuration not stated), for which the fluorescence lifetime (in ClCCl) came to 3 ns.
As to `c1ccc(-c2nn(-c3ccccc3)c3nc4ccccc4cc23)cc1`, the fluorescence lifetime was determined as 17.9 ns (in C1CCCCC1); 21.2 ns (in C1CCOC1); 25.1 ns (in CC#N); 23.4 ns (in CC(C)=O); 19.7 ns (in CCCCCl); 18.6 ns (in CCCCOCCCC). The molecule further showed a fluorescence lifetime (in CN(C)C=O) of 22 ns.
Under “in CC#N”, `c1cc2c3c(cccc3c1)C(N1CCOCCOCCN(C3=Nc4cccc5cccc3c45)CCOCC1)=N2` gave a fluorescence lifetime of 0.51 ns.
Still for that read-out and setting: under `C[n+]1ccc2c(ccc3c[n+](C)ccc32)c1` stands 6.6 ns.
`Cc1cccc(-c2c3ccccc3cc3ccccc23)n1` had a fluorescence lifetime (in ClCCl) of 5.7 ns.
`O=C1c2ccc(N(c3ccc(-c4ccccc4)cc3)c3ccc(-c4ccccc4)cc3)cc2C(=O)c2ccc(N(c3ccc(-c4ccccc4)cc3)c3ccc(-c4ccccc4)cc3)cc21` returned a fluorescence lifetime (in Cc1ccccc1) of 3.5 ns and a fluorescence lifetime (in c1ccc2c(c1)c1ccccc1n2-c1ccc(-c2ccc(-n3c4ccccc4c4ccccc43)cc2)cc1) of 5.6 ns.
For `CCCn1c2cccc3oc4cccc5c4[c+](c32)c2c1cccc2n5CCC`, the fluorescence lifetime is, setting by setting: (in CC#N) 19.4 ns; (in CO) 17.8 ns; (in ClCCl) 20.6 ns; (in OCC(O)CO) 18.3 ns.
Take `COC(=O)c1ccc(-c2ccc3c(c2)C(=O)c2cc(-c4ccc(C(=O)OC)cc4)ccc2-3)cc1`: the fluorescence lifetime (in C1CCOC1) is 2.3 ns.
`C[Si]1(C)c2cc(-c3ccc(N(c4ccccc4)c4ccccc4)cc3)ccc2C=Cc2ccc(-c3ccc(N(c4ccccc4)c4ccccc4)cc3)cc21` displayed a fluorescence lifetime (in ClCCl) of 2.1 ns.
The molecule `CC(C)(C)OC(=O)n1ccc2c3ccc4cccc5ccc(cc21)c3c54` showed a fluorescence lifetime (in CCOC(C)=O) of 8.29 ns.
In the case of `C(#Cc1ccccc1)c1ccccc1`, the fluorescence lifetime (in ClC(Cl)Cl) is 3.89 ns.
